Test [1] concerns the target PI3K δ (Homo sapiens, UniProt O00329). Nature of the test: PI3K δ kinase assay. In kind it is biochemical. Conditions: Table 2.
Test [2] concerns the target T1, mTOR (Homo sapiens, UniProt P42345).
T1 construct: purchased Invitrogen
Nature of the test: mTOR kinase inhibition assay. The class given is biochemical. The conditions noted are these: Table 2; read-out: mTORC IC50.
Procedure: The compounds described herein and any other mTorC1/mTorC2 inhibitors known in the art can be tested against recombinant mTOR (Invitrogen) in an assay containing 50 mM HEPES, pH 7.5, 1 mM EGTA, 10 mM MgCl2, 2.5 mM, 0.01% Tween, 10 μM ATP (2.5 μCi of μ-32P-ATP), and 3 mg/mL BSA. Rat recombinant PHAS-1/4EBP1 (Calbiochem; 2 mg/mL) is used as a substrate. Reactions are terminated by spotting onto nitrocellulose, which is washed with 1M NaCl/1% phosphoric acid (approximately 6 times, 5-10 minutes each). Sheets are dried and the transferred radioactivity quantitated by phosphorimaging.
For instance, one can use Invitrogen's LanthaScreen™ Kinase assay to test the inhibitors of mTOR disclosed herein. This assay is a time resolved FRET platform that measures the phosphorylation of GFP labeled 4EBP1 by mTOR kinase. The kinase reaction is performed in a white 384 well microtitre plate. The total reaction volume is 20 μl per well and the reaction buffer composition is 50 mM HEPES pH7.5, 0.01% Polysorbate 20, 1 mM EGTA, 10 mM MnCl2, and 2 mM DTT. In the first step, each well receives 2 ul of test compound in 20% dimethylsulphoxide resulting in a 2% DMSO final concentration. Next, 8ul of mTOR diluted in reaction buffer is added per well for a 60 ng/ml final concentration. To start the reaction, 10 ul of an ATP/GFP-4EBP1 mixture (diluted in reaction buffer) is added per well for a final concentration of 10 μM ATP and 0.5 μM GFP-4EBP1. The plate is sealed and incubated for 1 hour at room temperature. […] The plate is sealed, incubated for 1 hour at room temperature, and then read on a plate reader set up for LanthaScreen™ TR-FRET. Data is analyzed and IC50s are generated using GraphPad Prism 5.

The subject of test [3] is PC3. Nature of the test: PC3 proliferation. The conditions noted are these: Homo sapiens, PC-3; Table 2. In kind it is cell-based.
The target in test [4] is PI3K γ (Homo sapiens, UniProt P48736). Nature of the test: PI3K γ kinase assay. The class given is biochemical. Conditions: Table 2.
Chain of PI3K γ (P48736 whole entry, species assumed): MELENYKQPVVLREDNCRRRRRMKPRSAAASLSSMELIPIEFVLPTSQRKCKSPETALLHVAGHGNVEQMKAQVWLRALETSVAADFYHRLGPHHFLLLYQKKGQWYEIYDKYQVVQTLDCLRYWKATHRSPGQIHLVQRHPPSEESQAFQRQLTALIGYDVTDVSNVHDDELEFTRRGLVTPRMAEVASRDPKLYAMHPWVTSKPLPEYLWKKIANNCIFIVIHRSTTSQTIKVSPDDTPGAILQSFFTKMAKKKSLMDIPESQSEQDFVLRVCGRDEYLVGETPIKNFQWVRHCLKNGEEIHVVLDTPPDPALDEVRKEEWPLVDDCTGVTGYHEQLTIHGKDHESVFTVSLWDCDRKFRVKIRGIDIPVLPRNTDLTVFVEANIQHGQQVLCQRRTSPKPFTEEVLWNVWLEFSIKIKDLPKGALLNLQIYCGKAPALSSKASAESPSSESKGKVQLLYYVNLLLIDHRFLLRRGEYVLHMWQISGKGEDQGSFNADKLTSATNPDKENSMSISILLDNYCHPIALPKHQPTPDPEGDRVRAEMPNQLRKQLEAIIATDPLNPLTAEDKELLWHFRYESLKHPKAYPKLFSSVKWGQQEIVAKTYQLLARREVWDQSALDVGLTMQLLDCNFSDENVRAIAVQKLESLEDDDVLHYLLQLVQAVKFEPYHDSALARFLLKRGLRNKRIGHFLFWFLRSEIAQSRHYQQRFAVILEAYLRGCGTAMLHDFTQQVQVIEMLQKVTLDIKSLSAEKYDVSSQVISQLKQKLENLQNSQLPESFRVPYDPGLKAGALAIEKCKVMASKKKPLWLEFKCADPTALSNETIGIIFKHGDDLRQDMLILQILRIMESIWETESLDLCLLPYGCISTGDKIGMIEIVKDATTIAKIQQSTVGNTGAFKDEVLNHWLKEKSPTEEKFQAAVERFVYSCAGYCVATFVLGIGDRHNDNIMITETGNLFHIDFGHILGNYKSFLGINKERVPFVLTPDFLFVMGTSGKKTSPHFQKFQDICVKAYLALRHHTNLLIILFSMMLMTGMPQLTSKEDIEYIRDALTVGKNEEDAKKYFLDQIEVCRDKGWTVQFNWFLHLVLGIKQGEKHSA
The target of test [5] is PI3K α (Homo sapiens, UniProt P42336). Nature of the test: PI3K α kinase assay. In kind it is biochemical. Conditions: Table 2.
Chain of PI3K α (P42336 whole entry, species assumed): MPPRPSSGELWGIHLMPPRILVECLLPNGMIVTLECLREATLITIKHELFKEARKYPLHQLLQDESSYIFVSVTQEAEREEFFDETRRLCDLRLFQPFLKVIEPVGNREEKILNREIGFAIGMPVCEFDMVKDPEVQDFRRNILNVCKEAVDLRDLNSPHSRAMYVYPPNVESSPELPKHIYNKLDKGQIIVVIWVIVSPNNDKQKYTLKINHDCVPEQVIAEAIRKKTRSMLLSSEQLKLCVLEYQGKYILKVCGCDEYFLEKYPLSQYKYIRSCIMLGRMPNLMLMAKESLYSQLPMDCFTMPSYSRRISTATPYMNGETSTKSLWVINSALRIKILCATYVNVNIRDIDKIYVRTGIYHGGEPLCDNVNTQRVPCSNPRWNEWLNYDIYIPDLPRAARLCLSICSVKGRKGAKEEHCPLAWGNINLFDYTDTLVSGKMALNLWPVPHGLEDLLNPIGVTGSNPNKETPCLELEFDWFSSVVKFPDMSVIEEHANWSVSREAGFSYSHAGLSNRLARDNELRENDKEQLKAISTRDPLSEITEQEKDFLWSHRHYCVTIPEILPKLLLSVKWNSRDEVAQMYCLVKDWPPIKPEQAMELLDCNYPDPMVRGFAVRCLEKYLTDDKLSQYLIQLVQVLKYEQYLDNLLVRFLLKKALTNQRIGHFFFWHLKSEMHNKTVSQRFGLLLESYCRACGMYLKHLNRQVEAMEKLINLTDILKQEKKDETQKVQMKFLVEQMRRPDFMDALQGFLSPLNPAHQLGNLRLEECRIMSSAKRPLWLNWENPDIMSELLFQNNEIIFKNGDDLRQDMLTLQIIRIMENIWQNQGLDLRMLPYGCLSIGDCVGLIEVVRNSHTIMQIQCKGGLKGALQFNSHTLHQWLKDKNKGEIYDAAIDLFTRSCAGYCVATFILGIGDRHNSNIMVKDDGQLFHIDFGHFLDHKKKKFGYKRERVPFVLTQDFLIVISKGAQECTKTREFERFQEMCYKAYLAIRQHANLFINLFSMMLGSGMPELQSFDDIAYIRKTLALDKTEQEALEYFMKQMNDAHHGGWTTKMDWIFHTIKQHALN
Chain of PI3K α (P27986 whole entry partner, species assumed): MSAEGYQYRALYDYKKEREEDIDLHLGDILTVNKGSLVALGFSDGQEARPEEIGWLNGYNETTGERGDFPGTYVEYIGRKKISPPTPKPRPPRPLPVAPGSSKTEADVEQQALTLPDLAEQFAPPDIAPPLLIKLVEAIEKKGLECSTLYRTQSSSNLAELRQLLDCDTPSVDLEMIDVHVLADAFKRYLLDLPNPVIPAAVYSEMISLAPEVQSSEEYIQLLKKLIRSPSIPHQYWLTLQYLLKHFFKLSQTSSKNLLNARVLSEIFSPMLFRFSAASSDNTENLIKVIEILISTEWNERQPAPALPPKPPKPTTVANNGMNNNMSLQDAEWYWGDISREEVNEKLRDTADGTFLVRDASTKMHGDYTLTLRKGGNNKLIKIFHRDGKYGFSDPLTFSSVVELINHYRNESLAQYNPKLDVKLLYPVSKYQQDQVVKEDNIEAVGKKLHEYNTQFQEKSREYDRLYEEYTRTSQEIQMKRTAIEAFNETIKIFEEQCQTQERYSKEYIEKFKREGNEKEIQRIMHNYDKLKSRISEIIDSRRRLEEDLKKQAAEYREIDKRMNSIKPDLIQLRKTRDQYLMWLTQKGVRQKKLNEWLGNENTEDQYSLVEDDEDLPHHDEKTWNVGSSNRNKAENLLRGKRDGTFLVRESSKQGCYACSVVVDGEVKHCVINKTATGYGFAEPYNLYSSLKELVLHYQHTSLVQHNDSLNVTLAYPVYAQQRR
Test [6] addresses PI3K β (Homo sapiens, UniProt P42338). Nature of the test: PI3K β kinase assay. The class given is biochemical. Conditions: Table 2.

18 compounds from patent publication US20130209543A1, “ENHANCED TREATMENT REGIMENS USING MTOR INHIBITORS” (Intellikine LLC, priority 2011, published 2013) can be followed below.

Chain of PI3K δ (O00329 whole entry, species assumed): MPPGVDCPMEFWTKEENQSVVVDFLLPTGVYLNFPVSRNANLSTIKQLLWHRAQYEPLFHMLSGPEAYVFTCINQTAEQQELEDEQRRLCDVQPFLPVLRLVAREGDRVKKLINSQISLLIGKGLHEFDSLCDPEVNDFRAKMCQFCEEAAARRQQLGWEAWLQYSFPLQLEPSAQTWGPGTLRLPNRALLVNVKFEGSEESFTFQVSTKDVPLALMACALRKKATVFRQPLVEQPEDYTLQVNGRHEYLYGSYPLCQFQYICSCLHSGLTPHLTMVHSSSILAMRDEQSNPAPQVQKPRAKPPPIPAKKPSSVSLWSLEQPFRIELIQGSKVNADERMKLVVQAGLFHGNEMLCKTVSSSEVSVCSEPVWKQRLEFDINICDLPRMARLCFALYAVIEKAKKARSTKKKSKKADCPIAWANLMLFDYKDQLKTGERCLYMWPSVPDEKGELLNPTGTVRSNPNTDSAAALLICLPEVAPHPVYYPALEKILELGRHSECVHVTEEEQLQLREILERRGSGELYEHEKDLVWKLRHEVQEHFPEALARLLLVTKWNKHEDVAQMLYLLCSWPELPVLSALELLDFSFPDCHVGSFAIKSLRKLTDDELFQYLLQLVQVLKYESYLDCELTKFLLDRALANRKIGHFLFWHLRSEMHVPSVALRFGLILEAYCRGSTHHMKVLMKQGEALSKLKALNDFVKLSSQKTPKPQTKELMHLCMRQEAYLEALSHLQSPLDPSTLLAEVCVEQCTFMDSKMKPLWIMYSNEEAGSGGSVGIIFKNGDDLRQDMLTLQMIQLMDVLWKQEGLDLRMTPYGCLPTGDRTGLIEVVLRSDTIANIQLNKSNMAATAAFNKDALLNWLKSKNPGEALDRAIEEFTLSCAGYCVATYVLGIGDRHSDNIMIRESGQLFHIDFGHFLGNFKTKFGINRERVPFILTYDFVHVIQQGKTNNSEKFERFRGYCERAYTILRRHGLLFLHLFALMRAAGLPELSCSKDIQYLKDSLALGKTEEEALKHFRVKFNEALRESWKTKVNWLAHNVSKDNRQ
Chain of PI3K δ (P27986 whole entry partner, species assumed): as the sequence (P27986 whole entry partner, species assumed) above
Chain of PI3K β (P42338 whole entry, species assumed): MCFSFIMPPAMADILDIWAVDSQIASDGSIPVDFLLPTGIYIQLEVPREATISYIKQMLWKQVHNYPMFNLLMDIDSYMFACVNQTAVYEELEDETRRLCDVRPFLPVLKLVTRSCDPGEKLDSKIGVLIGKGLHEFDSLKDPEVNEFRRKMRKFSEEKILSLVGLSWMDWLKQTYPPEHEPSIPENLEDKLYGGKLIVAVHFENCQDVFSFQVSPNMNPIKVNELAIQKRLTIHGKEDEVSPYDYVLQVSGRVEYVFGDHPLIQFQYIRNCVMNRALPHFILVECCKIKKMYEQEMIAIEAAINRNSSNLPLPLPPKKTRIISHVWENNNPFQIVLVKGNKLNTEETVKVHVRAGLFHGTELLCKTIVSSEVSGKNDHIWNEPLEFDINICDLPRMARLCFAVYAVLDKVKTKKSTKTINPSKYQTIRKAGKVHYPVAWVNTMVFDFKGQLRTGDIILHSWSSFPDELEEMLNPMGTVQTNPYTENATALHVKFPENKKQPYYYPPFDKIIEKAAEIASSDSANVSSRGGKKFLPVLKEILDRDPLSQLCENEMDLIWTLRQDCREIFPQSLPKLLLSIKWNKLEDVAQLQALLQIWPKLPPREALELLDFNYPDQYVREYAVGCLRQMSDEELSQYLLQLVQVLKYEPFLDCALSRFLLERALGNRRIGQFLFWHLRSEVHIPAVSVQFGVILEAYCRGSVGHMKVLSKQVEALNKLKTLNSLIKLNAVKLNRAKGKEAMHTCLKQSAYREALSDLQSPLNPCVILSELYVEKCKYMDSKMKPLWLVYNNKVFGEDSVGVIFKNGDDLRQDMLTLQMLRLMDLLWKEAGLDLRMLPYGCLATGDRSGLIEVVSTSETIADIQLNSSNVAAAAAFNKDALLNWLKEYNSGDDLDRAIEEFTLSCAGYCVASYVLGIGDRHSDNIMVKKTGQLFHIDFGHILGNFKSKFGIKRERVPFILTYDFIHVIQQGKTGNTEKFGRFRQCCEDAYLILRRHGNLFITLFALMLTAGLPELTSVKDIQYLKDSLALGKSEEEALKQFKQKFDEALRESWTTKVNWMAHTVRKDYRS
Chain of PI3K β (P27986 whole entry partner, species assumed): as the sequence (P27986 whole entry partner, species assumed) above

For the compound `Nc1ncnc2c1c(-c1cc3cccc(O)c3[nH]1)nn2C1CCCC1` [Compound 36], the IC50 was 0.1 to 0.5 µM in test [1]; 0.005 to 0.01 µM in test [2]; 0.05 to 0.1 µM in test [3]; 0.05 to 0.1 µM in test [4]; greater than 0.5 µM in test [5].

`Nc1ncnc2c1c(-c1cc3cccc(O)c3[nH]1)nn2C1CCN(C(=O)C2CC2)CC1` [Compound 41]: the half-maximal inhibitory concentration (IC50) in test [1] was greater than 0.5 µM; in test [2], 0.005 to 0.01 µM; in test [4], 0.025 to 0.05 µM; in test [6] it was greater than 0.5 µM; in test [5], greater than 0.5 µM.

In the case of `Nc1ncnc2c1c(-c1cc3c(Cl)cccc3[nH]1)nn2C1CCOCC1` [Compound 48], the IC50 was greater than 0.5 µM in test [1]; 0.025 to 0.05 µM in test [2]; greater than 0.5 µM in test [4]; greater than 0.5 µM in test [6]; greater than 0.5 µM in test [5].

On to `Nc1ncnc2c1c(-c1cc3cc(O)ccc3[nH]1)nn2C1CC(N2CCOCC2)C1` (stereo not drawn) [Compound 49], for which the IC50 in test [1] was 0.1 to 0.5 µM; in test [2], 0.005 to 0.01 µM; in test [4] it was 0.1 to 0.5 µM; in test [6], greater than 0.5 µM; in test [5], greater than 0.5 µM.

For `CC(C)n1nc(-c2cc3cccc(Cl)c3[nH]2)c2c(N)ncnc21` [Compound 50], the IC50 in test [1] was 0.1 to 0.5 µM; in test [2], 0.025 to 0.05 µM; in test [4], 0.1 to 0.5 µM; in test [6] it was greater than 0.5 µM; in test [5], greater than 0.5 µM.

For `Nc1ncnc2c1c(-c1cc3cccc(Cl)c3[nH]1)nn2C1CCOCC1` [Compound 51], the IC50 in test [1] was 0.1 to 0.5 µM; in test [2] it was 0.025 to 0.05 µM; in test [4], 0.1 to 0.5 µM; in test [6], greater than 0.5 µM; in test [5] it was greater than 0.5 µM.

In the case of `CN1CCN(C2CC(n3nc(-c4cc5cc(O)ccc5[nH]4)c4c(N)ncnc43)C2)CC1` (stereo not drawn) [Compound 52], the IC50 was 0.1 to 0.5 µM in test [1]; 0.1 to 0.5 µM in test [2]; greater than 0.5 µM in test [4]; greater than 0.5 µM in test [6]; greater than 0.5 µM in test [5].

Turning to `COc1ccc(Cl)c2cc(-c3nn(C4CCOCC4)c4ncnc(N)c34)[nH]c12` [Compound 61], the IC50 is greater than 0.5 µM in test [1]; 0.01 to 0.025 µM in test [2]; greater than 0.5 µM in test [4]; greater than 0.5 µM in test [6]; greater than 0.5 µM in test [5].

As to `Nc1ncnc2c1c(-c1cc3cccc(O)c3[nH]1)nn2C1CCOCC1` [Compound 62], the 50% inhibitory concentration (IC50) in test [1] was 0.05 to 0.1 µM; in test [2] it was less than 0.005 µM; in test [4] it was greater than 0.5 µM; in test [6], greater than 0.5 µM; in test [5] it was greater than 0.5 µM.

On to `COc1cccc2cc(-c3nn(C4CCOCC4)c4ncnc(N)c34)[nH]c12` [Compound 63], for which the IC50 in test [1] was 0.01 to 0.025 µM; in test [2], less than 0.005 µM; in test [4], 0.01 to 0.025 µM; in test [6], greater than 0.5 µM; in test [5], 0.1 to 0.5 µM.

Take `CC(C)N1CCC(n2nc(-c3cc4cccc(O)c4[nH]3)c3c(N)ncnc32)CC1` [Compound 64]: the IC50 in test [1] is 0.1 to 0.5 µM; in test [2], 0.01 to 0.025 µM; in test [4], 0.1 to 0.5 µM; in test [6] it was greater than 0.5 µM; in test [5], greater than 0.5 µM.

In the case of `CC(=O)N1CCC(n2nc(-c3cc4ccc(O)cc4[nH]3)c3c(N)ncnc32)CC1` [Compound 65], the IC50 in test [1] is 0.01 to 0.025 µM; in test [2], 0.005 to 0.01 µM; in test [4] it was 0.01 to 0.025 µM; in test [6], greater than 0.5 µM; in test [5], 0.025 to 0.05 µM.

Regarding `COc1cccc2cc(-c3nn(C4CCN(C(=O)C5CC5)CC4)c4ncnc(N)c34)[nH]c12` [Compound 66], the IC50 in test [1], in test [2], in test [4], in test [6] and in test [5] was greater than 0.5 µM each time.

As for `COc1cc(Cl)c2[nH]c(-c3nn(C4CCOCC4)c4ncnc(N)c34)cc2c1` [Compound 67], the IC50 in test [1], in test [2], in test [4], in test [6] and in test [5] was greater than 0.5 µM in each case.

With `Nc1ncnc2c1c(-c1cc3cc(O)cc(Cl)c3[nH]1)nn2C1CCOCC1` [Compound 68], the IC50 was 0.01 to 0.025 µM in test [1]; less than 0.005 µM in test [2]; 0.025 to 0.05 µM in test [4]; greater than 0.5 µM in test [6]; 0.1 to 0.5 µM in test [5].

Turning to `CC(=O)N1CCC(n2nc(-c3cc4c(Cl)ccc(O)c4[nH]3)c3c(N)ncnc32)CC1` [Compound 69], the IC50 was 0.1 to 0.5 µM in test [1]; less than 0.005 µM in test [2]; greater than 0.5 µM in test [4]; greater than 0.5 µM in test [6]; greater than 0.5 µM in test [5].

Regarding `CC(=O)N1CCC(n2nc(-c3cc4cc(O)cc(Cl)c4[nH]3)c3c(N)ncnc32)CC1` [Compound 70], the IC50 was 0.01 to 0.025 µM in test [1]; less than 0.005 µM in test [2]; 0.05 to 0.1 µM in test [4]; greater than 0.5 µM in test [6]; 0.1 to 0.5 µM in test [5].

Take `CC(C)N1CCC(n2nc(-c3cc4c(Cl)ccc(O)c4[nH]3)c3c(N)ncnc32)CC1` [Compound 71]: the IC50 in test [1] is greater than 0.5 µM; in test [2], 0.05 to 0.1 µM; in test [4] it was greater than 0.5 µM; in test [6] it was greater than 0.5 µM; in test [5], greater than 0.5 µM.

As usually defined, the IC50 is the concentration that inhibits the measured activity by half.
